Data: ChEMBL document CHEMBL3301448, “MMV Malaria Box screening against Toxoplasma gondii and Entamoeba histolytica”

Experiments:
Entamoeba histolytica = experiment: MMV: Primary screening was performed with each compound at a 30 uM final concentration and in triplicate in sealed 96-well polystyrene microtiter plates. Parasite inocula (100 ul) comprising 20000 parasites/ml were added to each well and grown at 37 degrees C in a humidified atmosphere of 5% CO2 for 72 h. Positive controls consisted of metronidazole at 1 mg/ml. The growth of E. histolytica trophozoites in each well was determined microscopically by measuring the diameters of the confluent cells in drug-containing wells relative to those in the nega- tive-control wells.; type: functional, organism-based
Toxoplasma gondii = experiment: MMV: A total of 100ul of inoculum was added to each well (parasite/cell ratio, ~10:1; final volume, 200 ul). Six hours after inoculation, nonadherent parasites were removed, and 100 ul of complete DMEM (1% penicillin-streptomycin, 3% FBS) supplemented with inhibitors at different concentrations (2-fold serial dilutions starting from 30 uM) was added to all except the negative-control wells. Positive controls, consisting of pyrimethamine (PYR) and sulfadiazine (SDZ) (20-mg/ml stocks in DMSO), were tested at a 2mg/ml final concentration. Each test was performed in triplicate.; type: functional, organism-based; settings: 6 h

Row | SMILES | IC50 (Entamoeba histolytica) [µM] | IC50 (Toxoplasma gondii) [µM]
1 | CN1CCN(c2ccc(Nc3c4ccccc4nc4ccccc34)cc2)CC1 | > 30 | > 30
2 | CN(C)CCCNc1c2ccccc2nc2ccccc12 | > 30 | 25.8
3 | CCN1CCCC1CNc1[nH]cnc2c3cc(Cl)ccc3nc1-2 (stereo not given) | > 30 | > 30
4 | COc1ccc(-c2c(C)nn3c(N)c(C#N)cnc23)cc1OC | > 30 | > 30
5 | CSC1=NC(=Nc2c(C)cccc2C)C2(CCC(C(C)(C)C)CC2)N1c1ccc(Cl)cc1 (stereo not given) | > 30 | > 30
6 | C[n+]1c2ccccc2nc2ccc(NCCO)cc21 | > 30 | > 30
7 | Cc1cc(C)cc(Nc2cc(C)nc3nc(C(F)(F)F)nn23)c1 | > 30 | > 30
8 | O=C(NCC(c1ccsc1)N1CCCCCC1)c1ccc(C(F)(F)F)cc1 (stereo not given) | > 30 | > 30
9 | COc1ccc(-c2cc3c(SCC(=O)Nc4cc(C(F)(F)F)ccc4Cl)nccn3n2)cc1 | > 30 | > 30
10 | Cc1ccc(-c2cc3c(SCC(=O)Nc4cc(C(F)(F)F)ccc4Cl)nccn3n2)cc1 | > 30 | > 30
11 | CCN(CC)CCNc1ncnc2c1[nH]c1ccc(Cl)cc12 | > 30 | > 30
12 | CCOC(=O)c1cnc2ccc(CC)cc2c1O | > 30 | > 30
13 | Cc1ccc(-c2cc3c(nn2)-c2ccccc2C3=O)cc1 | > 30 | > 30
14 | CCN(CC)CCNc1ccnc2cc(Cl)ccc12 | > 30 | > 30
15 | Cc1ccc(Nc2nc(-c3ccccn3)cs2)cc1 | > 30 | > 30
16 | CCCCCC(=O)N1c2ccccc2N=C2CC(c3ccc(OC)c(OC)c3)CC(O)=C2C1c1ccc(C(F)(F)F)cc1 (stereo not given) | > 30 | > 30
17 | Cc1cc(Nc2ccc3ccccc3c2)n2ncnc2n1 | > 30 | > 30
18 | Cc1cc(NCCN2CCCCC2)c2ccc3ccccc3c2n1 | > 30 | > 30
19 | COc1ccc(-n2ccnc2SCC(=O)Nc2cc(C)ccc2C)c(OC)c1 | > 30 | > 30
20 | CCN1CCN(Cc2ccc(NC(=O)c3cc4ccc5cccnc5c4[nH]3)cc2)CC1 | > 30 | 3.85
21 | COc1ccc(-c2nc(NC(=O)CS(=O)(=O)c3ccc(F)cc3)sc2C)cc1 | > 30 | > 30
22 | O=C(O)C1Cc2c([nH]c3ccccc23)C(c2ccc(Cl)cc2Cl)N1 (stereo not given) | > 30 | > 30

Row | SMILES | IC50 (Entamoeba histolytica) [µM] | IC50 (Toxoplasma gondii) [µM]
23 | Cc1ccc(N2C(=O)C3C(C2=O)C2(c4ccccc4)C(=O)C3(c3ccccc3)C(c3ccccc3)=C2c2ccccc2)cc1 (stereo not given) | > 30 | > 30
24 | CCc1c(C)c(=N)c2ccccc2n1C | > 30 | > 30
25 | COc1cccc(NC(=O)[C@H](C(C)C)n2c(=O)[nH]c3ccccc3c2=O)c1 | > 30 | > 30
26 | CCOC(=O)c1cn(CC)c2cc(N(C)CCc3ccc(OC)c(OC)c3)c(F)cc2c1=O | > 30 | > 30
27 | CCC(c1ccccc1)c1nn2c(-c3cccs3)nnc2s1 (stereo not given) | > 30 | > 30
28 | CC(C)(C)c1ccc(O)c(CNC2CCCCC2)c1 | > 30 | > 30
29 | O=[N+]([O-])c1ccc(C=NNc2nc3ccccc3[nH]2)cc1 | > 30 | > 30
30 | CCOc1cc2c(cc1OCC)C(c1cc(OC)c(O)cc1Cl)NCC2 (stereo not given) | > 30 | > 30
31 | CC1CN(C(=O)c2sc3ccccc3c2Cl)CC(C)O1 (stereo not given) | > 30 | > 30
32 | CN(C)c1ccc(C=Cc2nc(=O)c3ccccc3o2)cc1 | > 30 | > 30
33 | COc1ccc(C2=C(c3ccc(OC)cc3)C3(c4ccccc4)C(=O)C2(c2ccccc2)C2C(=O)N(c4ccc(C)cc4)C(=O)C23)cc1 (stereo not given) | > 30 | > 30
34 | CCOC(=O)c1c(NC(=O)c2ccccc2)sc2c(O)c(CN(CC)CC)ccc12 | > 30 | > 30
35 | CCOC(=O)C1=C(c2ccccc2)N=c2sc(=Cc3cc(C)n(-c4ccc(F)cc4)c3C)c(=O)n2C1c1cccc(OC)c1OC (stereo not given) | > 30 | > 30
36 | CCC1(C)CC(CCNCc2ccccc2O)(c2ccc(C)cc2)CCO1 (stereo not given) | > 30 | > 30
37 | OC(CNC1CCCCC1)Cn1c2ccccc2c2ccccc21 (stereo not given) | > 30 | 8.72
38 | Cc1cc(Nc2ccc(C)c(Cl)c2)n2nc(C(F)(F)F)nc2n1 | > 30 | > 30
39 | COc1cccc(C=Cc2nc(=O)c3ccccc3o2)c1OC | > 30 | > 30
40 | CCCN(CCC)CC(O)COc1ccccc1C(=O)Nc1ccccc1 (stereo not given) | > 30 | > 30
41 | Fc1ccc2[nH]c3c(NCCCN4CCOCC4)ncnc3c2c1 | > 30 | > 30
42 | COc1ccc(C(=O)Nc2nonc2-c2ccc(OC)c(OC)c2)cc1Cl | > 30 | > 30
43 | COc1ccc(C=C2SC(=N)N(c3ccccc3OC)C2=O)cc1 | > 30 | > 30
44 | COc1ccc(NC(=O)C2c3ccccc3C(=O)N(CC(C)C)C2c2cccs2)cc1Cl (stereo not given) | > 30 | > 30

Row | SMILES | IC50 (Entamoeba histolytica) [µM] | IC50 (Toxoplasma gondii) [µM]
45 | CCOC(=O)c1c(C)n(-c2ccc(Cl)cc2)c2ccc(OC(=O)C=Cc3ccccc3)cc12 | 10.7 | > 30
46 | COc1ccc2c(c1)OC(O)(C(F)(F)C(F)(F)F)CC2=O (stereo not given) | > 30 | > 30
47 | CCOc1cc(Cl)c(C(C)NC(=O)c2ccccc2)cc1OCC (stereo not given) | > 30 | > 30
48 | C=CC12CCN(CC1)C(C(O)c1ccnc3ccc(OC)cc13)C2 (stereo not given) | > 30 | > 30
49 | Cc1ccc(-c2cc3nc4c(c(O)n3n2)CCCC4)cc1 | > 30 | 8.22
50 | Cc1cccc(Nc2nc(N)c3ccccc3n2)c1 | > 30 | > 30
51 | CCn1c(CN2CCN(Cc3ccccc3)CC2)nc2cc(NC(=O)c3cccs3)ccc21 | > 30 | > 30
52 | COc1ccccc1CNC(=O)CCn1c(=O)[nH]c2ccccc2c1=O | > 30 | > 30
53 | c1ccc2cc3c(Nc4ccc(N5CCOCC5)cc4)ccnc3cc2c1 | 15.6 | > 30
54 | Cc1cc(C)c2c(c1)OCN(Cc1ccccc1Cl)C2 | > 30 | > 30
55 | COc1cc(OC)c(N(C)C(=O)c2cc3c(s2)-c2ccccc2S(=O)(=O)C3)cc1Cl | > 30 | > 30
56 | COc1ccccc1NC1=C(N2CCCCC2)C(=O)c2ccccc2C1=O | > 30 | 4.54
57 | CCOC(=O)c1cn(CC)c2cc(N3CCCCC3)c(F)cc2c1=O | > 30 | > 30
58 | CCCc1cc(O)c2c3c(c(=O)oc2c1)CN(C)CC3 | > 30 | > 30
59 | Cc1cc(NC(=O)C2c3ccccc3C(=O)N(CC(C)C)C2c2cccs2)no1 (stereo not given) | > 30 | 20.9
60 | Oc1ccccc1CNCC12CC3CC(CC(C3)C1)C2 | > 30 | > 30
61 | CNCCCNc1ccnc2cc(Cl)ccc12 | > 30 | > 30
62 | COc1ccccc1CNC(=O)CCn1c(=O)[nH]c2ccsc2c1=O | > 30 | 20.9
63 | COc1ccc(Br)cc1C1Nc2ccc3ccccc3c2C2=C1C(=O)CC(c1ccccc1)C2 (stereo not given) | > 30 | > 30
64 | Cc1cc(C=C2SC(=Nc3ccccc3)N(C3CCCC3)C2=O)c(C)n1-c1ccc(Cl)cc1 | > 30 | > 30
65 | CCn1c(SCC(=O)Nc2cc(C(F)(F)F)ccc2Cl)nc2ccccc2c1=O | > 30 | > 30
66 | Cc1ccc(Cn2c(N3CCC(C(=O)NCc4cccs4)CC3)nc3ccccc32)cc1 | > 30 | > 30

Row | SMILES | IC50 (Entamoeba histolytica) [µM] | IC50 (Toxoplasma gondii) [µM]
67 | CC1CCN(Cc2ccc(NC(=O)c3cc4ccc5cccnc5c4[nH]3)cc2)CC1 | > 30 | > 30
68 | O=C(Nc1ccc(Cl)cc1C(=O)Nc1ccncc1)c1ccc(Cl)cc1Cl | > 30 | 19
69 | CCOc1ccc(-c2nonc2NC(=O)c2cccc(C)c2)cc1OCC | > 30 | > 30
70 | CCc1ccc(Nc2cc(C)c3ccc(O)cc3n2)cc1 | > 30 | > 30
71 | COc1ccc2c(=O)cc(C(Cl)(Cl)Cl)oc2c1 | > 30 | 6.45
72 | CSc1ccccc1C(=O)Nc1nc(-c2ccccn2)cs1 | > 30 | > 30
73 | CCCCc1ccc(NS(=O)(=O)c2cc3c4c(c2)CCN4C(=O)CC3)cc1 | > 30 | > 30
74 | COc1ccc(-c2nc3cc(Cc4ccc5[nH]c(-c6ccc(OC)cc6)nc5c4)ccc3[nH]2)cc1 | > 30 | > 30
75 | CCOC(=O)c1ccc2nc(-c3ccccc3)cc(O)c2c1 | > 30 | > 30
76 | Cc1cc(Nc2ccc(Cl)cc2)n2nc(C(F)(F)F)nc2n1 | > 30 | > 30
77 | COc1ccc(C(C)=O)cc1N1C(=O)C2C(C1=O)C1(c3ccccc3)C(=O)C2(c2ccccc2)C(c2ccc(C)cc2)=C1c1ccc(C)cc1 (stereo not given) | > 30 | > 30
78 | CCCCCCOC(=O)C1=C(C)NC(=O)NC1c1ccccc1F (stereo not given) | > 30 | > 30
79 | Cc1ccc(N2C3c4ccccc4N(S(=O)(=O)c4ccc(C)cc4)C2c2ccccc2N3S(=O)(=O)c2ccc(C)cc2)cc1 | > 30 | > 30
80 | CCCc1c(CC)c(=N)c2ccccc2n1C | > 30 | > 30
81 | Cc1ccc(Nc2nc(NCCO)c3ccccc3n2)cc1C | > 30 | > 30
82 | CC1CCCCN1CCCNC(=O)c1ccc2c(c1)sc1nc(-c3ccc(F)cc3)cn12 (stereo not given) | > 30 | > 30
83 | CCOC(=O)c1cnc2c(C)cc(C)cc2c1Nc1ccc(OC)c(OC)c1 | > 30 | > 30
84 | COc1ccc(NC(=O)C2c3ccccc3C(=O)N(CC(C)C)C2c2cccs2)cc1 (stereo not given) | > 30 | > 30
85 | c1ccc(Cn2c(N=Nc3c(Nc4ccccc4)ccc4ccccc34)nc3ccccc32)cc1 | > 30 | 13.5
